In data set [1] the test system is plasma clotting (coagulation pathway). The data set can be described thus: Plasma recalcification time (PRT). It counts as biochemical. To be noted: fresh plasma, 10 min at 37 °C, n = 3. The procedure: Plasma recalcification time (PRT) was used to evaluate the effects of GC38 on the coagulation pathway. Fresh plasma was incubated with GC38 (0.1, 1, and 10 µM) for 10 min at 37 °C. After incubation, the plasma was mixed with an equal volume of 25 mM calcium chloride solution, and the timer was immediately started. The time required for plasma clot formation was recorded. The group treated with PBS served as the control. Each concentration was tested in triplicate, and the average value and PRT at maximum reactive velocity were reported.

The subject of data set [2] is human plasma, extrinsic clotting cascade. The data set is described as follows: Prothrombin time (PT). It counts as biochemical. To be noted: GC38 0.1-10 μM; human plasma 20 μL, pre-incubation 5 min at 37 °C, PT reagent; scattered light; n = 3. As to the method: APTT and PT were measured with commercially available kits according to the manufacturer’s instructions. For APTT determination, 20 μL human plasma was pre-incubated with GC38 (0.1, 1, and 10 µM) at 37 °C for 5 min, and then 30 μL APTT reagent was added and incubated for another 5 min. Subsequently, 40 μL pre-warmed CaCl2 (37 °C) was added to initiate the intrinsic clotting cascade. The intensity of the scattered light was monitored until the signals reached saturation. For PT determination, 20 μL human plasma was pre-incubated with GC38 (0.1, 1, and 10 µM) at 37 °C for 5 min. Then, 75 μL PT reagent was added to initiate the extrinsic clotting cascade. The intensity of the scattered light was monitored until the signals reached saturation. The coagulation time (APTT or PT) was defined as the time point at which the scattered light signal reached the midpoint between the baseline and maximum amplitude. All concentrations were tested in triplicate. Results are shown as mean values, and the time at maximum reactive velocity was also reported.

Data set [3] has as its system human embryonic kidney cells (HEK293T). The data set is described as follows: Cytotoxicity (CCK-8), HEK293T. Type of data set: cell-based. To be noted: 24 h, n = 3. As to the method: (§1) The cytotoxicity of GC38 was evaluated in human embryonic kidney cells (HEK293T), human keratinocytes (HaCaT), and murine macrophage (RAW264.7) cell lines. The cells were from Kunming Cell Bank, Chinese Academy of Sciences. HEK293T and HaCaT cells were cultured in DMEM supplemented with 10% fetal bovine serum (FBS) and 1% penicillin-streptomycin, and RAW264.7 cells were maintained in RPMI 1640 containing 10% FBS and 1% penicillin–streptomycin, with all cell lines incubated at 37 °C under 5% CO2. For cytotoxicity assessment, cells were seeded at a density of 1 × 10^5 cells per well in 96-well plates and incubated for 12 h. […] After 24 h incubation, cell viability was determined using the CCK-8 assay (10 μL/well). Absorbance was measured at 450 nm using a multi-mode microplate reader (BioTek Synergy™ H1, Winooski, VT, USA). Untreated cells and cells treated with 10% DMSO served as negative and positive controls, respectively. Viability percentages were calculated relative to the untreated control. All experiments were conducted in triplicate, and data were expressed as mean ± SEM.

In data set [4] the test system is murine macrophage (RAW264.7). The data set can be described thus: Cytotoxicity (CCK-8), RAW264.7. It counts as cell-based. To be noted: 24 h, n = 3. Set-up: cytotoxicity RAW264.7: dose or concentration left out as unconfirmed. The procedure:
as §1

The test system of data set [5] is mouse red blood cells (RBCs). The data set can be described thus: Hemolysis assay. It counts as cell-based. To be noted: 50 μM; RBCs 1 × 10^8/mL in PBS, 37 °C, 30 min; absorbance 450 nm; versus 1% Triton X-100; n = 3. The procedure: The hemolytic activity of GC38 was assessed using mouse red blood cells (RBCs). Fresh […] blood was centrifuged at 1500 rpm for 5 min to isolate RBCs, followed by three washes with sterile PBS and resuspension in PBS with a density of 1 × 10^8 RBCs/mL. GC38 was diluted in PBS to concentrations ranging from 3.125 to 50 μM. For the assay, 100 µL of the RBC suspension was mixed with an equal volume of GC38 solution and incubated at 37 °C for 30 min. After incubation, the samples were centrifuged at 1500 rpm for 5 min to pellet intact RBCs. The absorbance of the supernatant was measured at 450 nm using a multi-mode microplate reader (BioTek Synergy™ H1, Winooski, VT, USA). PBS and 1% Triton X-100-treated groups served as negative and positive controls, respectively. The percentage of hemolysis was calculated by comparing the absorbance values of the samples to those of the controls. All concentrations underwent triplicate testing, with results presented as mean ± SEM.

In another data set the test system is mouse tail bleeding. The data set is described as follows: Tail bleeding time. It counts as in vivo, C57BL/6J mice. To be noted: n = 6; for tail bleeding time: 10 min after administration, vehicle 89.8 s. As to the method:
The C57BL/6J mice (male, 6–8 weeks old) were purchased from Beijing Vital River Laboratory Animal Technology Co., Ltd. (Beijing, China). All animal studies were performed under the approval of the Ethics Committee of the Laboratory Animal Welfare of the Kunming Institute of Zoology, Chinese Academy of Sciences (IACUC-RE-2025-03-010).
The mouse tail-bleeding assay was performed to evaluate the bleeding risk associated with GC38 treatment. Male C57BL/6J mice (6–8 weeks, n = 6 per group) were randomized to receive intravenous injection of PBS (negative control), GC38 (2 or 4 mg/kg in PBS), or heparin sodium (1000 U/kg, positive control). The assay was conducted 10 min after administration. Mice were anesthetized, and a 2 mm segment of the tail tip was surgically transected using a sterile scalpel. Immediately after the incision, the tail was immersed in prewarmed PBS (37 °C) to facilitate blood flow. Bleeding time was recorded from the moment of the incision until the complete cessation of bleeding (no blood flow for 60 s).

[6] abbreviates: 50 μM, serum-free medium, CCK-8, 450 nm, relative to untreated control.

Consider one molecule from PMC12564639, “Discovery of a Novel Anticoagulant Cystine Knot Peptide from Spider Venom Gland Transcriptome” (International Journal of Molecular Sciences, 2025).

Each structure is given as a SMILES string. Peptide text beside a SMILES is read from it.

On to `CSCC[C@@H]1NC(=O)[C@H](CC(N)=O)NC(=O)CNC(=O)CNC(=O)[C@H](Cc2c[nH]cn2)NC(=O)[C@H](CCCNC(=N)N)NC(=O)CNC(=O)[C@@H]2CSSC[C@@H]3NC(=O)[C@H](CCCNC(=N)N)NC(=O)[C@H](C)NC(=O)CNC(=O)[C@H](CCCCN)NC(=O)CNC(=O)[C@H](CO)NC(=O)[C@@H](NC(=O)CN)CSSC[C@H](NC(=O)[C@H](CSSC[C@@H](C(=O)N[C@@H](CCC(=O)O)C(=O)N[C@@H](Cc4c[nH]c5ccccc45)C(=O)N[C@@H](CC(N)=O)C(=O)N[C@@H](Cc4c[nH]c5ccccc45)C(=O)N[C@@H](CCCCN)C(=O)N[C@H](C(=O)NCC(=O)O)[C@@H](C)O)NC(=O)[C@H](CO)NC(=O)[C@H](CCCCN)NC(=O)[C@H](Cc4ccc(O)cc4)NC1=O)NC(=O)[C@H](CCCCN)NC(=O)[C@H](CO)NC(=O)[C@@H]1CCCN1C(=O)[C@H](C)NC3=O)C(=O)N[C@@H](CO)C(=O)NCC(=O)N[C@@H](CC(C)C)C(=O)N[C@@H](CO)C(=O)N2` [GC38] (HELM PEPTIDE1{G.C.S.G.K.G.A.R.C.A.P.S.K.C.C.S.G.L.S.C.G.R.H.G.G.N.M.Y.K.S.C.E.W.N.W.K.T.G}$PEPTIDE1,PEPTIDE1,2:R3-15:R3|PEPTIDE1,PEPTIDE1,9:R3-20:R3|PEPTIDE1,PEPTIDE1,14:R3-31:R3$$$V2.0), for which the “PRT clotting time versus negative control (time to Vmax)” value in data set [1] (GC38 10 μM, then 25 mM CaCl2, mean) worked out at 1.4 fold. The “clotting time in plasma (PRT), dose response” value in data set [1] (GC38 0.1-10 μM, then equal volume 25 mM CaCl2) is on record as “prolonged clotting time in plasma in a dose-responsive manner”. The “prothrombin time (PT) effect” value in data set [2] is on record as “no apparent effects on prothrombin time (PT)”. For the same molecule, the “cell viability HEK293T” value in data set [3] (setting [6]) is “greater than 95%”. Further, in data set [3] (0.1–50 μM, CCK-8), the “cytotoxicity HEK293T” value was “negligible cytotoxicity”. In addition, the “cell viability RAW264.7” value in data set [4] (setting [6]) was “greater than 95%”. Moreover, the “cytotoxicity RAW264.7” value in data set [4] (CCK-8) is given as “negligible cytotoxicity”. Further, the hemolytic activity entry in data set [5] is listed as “below 3%”. The results for the tail bleeding time in the data set on mouse tail bleeding (GC38 2 mg/kg i.v.) and with mouse tail bleeding (GC38 4 mg/kg i.v.) were 97.6 s and 100.6 s, respectively. For the same molecule, the “tail bleeding time versus vehicle control” value with mouse tail bleeding (GC38 2 and 4 mg/kg i.v.) is “comparable to the vehicle control group”.
